Measured values reported in patent US20160235727A1, “NOVEL PYRROLIDINE DERIVED BETA 3 ADRENERGIC RECEPTOR AGONISTS” (Merck Sharp & Dohme Corp., priority 2013, published 2016).

How the values were obtained:
[1] = test system: rats; conditions: cited from earlier work
[2] = biological target: T1, human β3-AR (Homo sapiens, UniProt P13945); test: cAMP functional agonist assay (LANCE TR-FRET) in CHO cells expressing cloned human β3-AR; type: cell-based
T1 construct: expressed in transfected cells; host or cells: CHO (Chinese hamster ovary) cells, stably transfected

[3] = intravenous, cystometric studies

T1 sequence (P13945 whole entry): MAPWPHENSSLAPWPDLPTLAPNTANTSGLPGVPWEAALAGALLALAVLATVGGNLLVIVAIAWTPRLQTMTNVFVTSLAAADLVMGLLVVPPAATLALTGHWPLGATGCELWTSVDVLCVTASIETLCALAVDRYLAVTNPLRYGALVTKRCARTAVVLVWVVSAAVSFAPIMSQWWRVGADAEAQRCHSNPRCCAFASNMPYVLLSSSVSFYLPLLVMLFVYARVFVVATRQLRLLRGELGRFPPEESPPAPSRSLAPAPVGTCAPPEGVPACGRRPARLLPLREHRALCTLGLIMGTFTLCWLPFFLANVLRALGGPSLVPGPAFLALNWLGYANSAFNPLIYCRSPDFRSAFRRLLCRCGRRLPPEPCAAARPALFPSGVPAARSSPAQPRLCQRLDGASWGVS

EC50 ([2]; CHO cells stably expressing cloned human β3-adrenoceptor, cAMP release, read-out: Human β3-AR Agonism EC50) [nM] | Fold drop in potency vs. 2-chloropyridine analog ([2]; EC50 of comparative example divided by EC50 of corresponding 2-chloropyridine compound) [fold] | Human β3-AR Agonist Activity (%) ([2]; percent maximum activation relative to isoproterenol) | Compound | bladder pressure ([1]; intravenous administration) | bladder capacity [1, 3] | micturition interval [1, 3] | residual urine volume [1, 3]
– | – | – | C[C@H](Cc1ccc2c(c1)OC(C(=O)[O-])(C(=O)[O-])O2)NC[C@H](O)c1cccc(Cl)c1.[Na+].[Na+] [CL316243] | reduces | increases | prolongation | without increasing
65 | 2.6 | 81 | CN(Cc1nc2ccccc2c(=O)n1C)C(=O)c1ccc(C[C@@H]2CC[C@H]([C@H](O)c3ccccc3)N2)cc1 [Example 45-B, 4-(((2S,5R)-5-((R)-hydroxy(phenyl)methyl)pyrrolidin-2-yl)methyl)-N-methyl-N-((3-methyl-4-oxo-3,4-dihydroquinazolin-2-yl)methyl)benzamide] | – | – | – | –
